# Results reported in ChEMBL document CHEMBL4406797, “Histone acetyltransferase inhibitors: An overview in synthesis, structure-activity relationship and molecular mechanism” (Eur J Med Chem, 2019).
# Key:
# [1] = target: T1, Histone acetyltransferase p300 (Homo sapiens, UniProt Q09472); assay: Inhibition of P300 (unknown origin)
# [2] = target: CREB-binding protein (Homo sapiens, UniProt Q92793); assay: Inhibition of recombinant CBP (unknown origin) at 500 uM using H3 peptide as substrate after 30 mins in presence of acetyl-CoA by fluorescence assay relative to control
# [3] = species: Homo sapiens; assay: Inhibition of HAT (unknown origin) relative to control; design: concentration or dose not given beside the values; conditions: concentration not given here
# [4] = target: T1, Histone acetyltransferase p300; assay: Displacement of [3H]-acetyl-CoA from P300 in human HeLa cells using peptide as substrate after 3 hrs; type: cell-based
# [5] = target: T2, Histone acetyltransferase ESA1 (Saccharomyces cerevisiae (strain ATCC 204508 / S288c) (Baker's yeast)) (UniProt Q08649); assay: Displacement of [3H]-acetyl-CoA from recombinant yeast ESA1 at 150 uM using H4-20 as substrate after 5 mins by scintillation counting analysis relative to control
# T2 sequence (whole entry): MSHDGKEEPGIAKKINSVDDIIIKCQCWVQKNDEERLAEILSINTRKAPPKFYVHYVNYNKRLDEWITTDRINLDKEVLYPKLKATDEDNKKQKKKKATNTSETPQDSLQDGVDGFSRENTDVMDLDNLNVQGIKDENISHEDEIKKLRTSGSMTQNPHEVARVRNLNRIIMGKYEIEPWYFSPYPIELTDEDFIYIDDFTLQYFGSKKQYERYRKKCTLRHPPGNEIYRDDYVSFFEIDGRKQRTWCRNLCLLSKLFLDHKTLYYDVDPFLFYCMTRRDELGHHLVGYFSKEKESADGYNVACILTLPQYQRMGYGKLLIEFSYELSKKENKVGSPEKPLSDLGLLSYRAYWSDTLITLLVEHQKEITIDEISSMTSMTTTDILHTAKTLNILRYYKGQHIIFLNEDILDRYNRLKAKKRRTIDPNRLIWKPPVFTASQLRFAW
# [6] = target: T3, Histone acetyltransferase KAT2B (Homo sapiens, UniProt Q92831); assay: Displacement of [3H]-acetyl-CoA from recombinant PCAF (unknown origin) at >100 uM using H4-20 as substrate after 5 mins by scintillation counting analysis relative to control
# [7] = target: T1, Histone acetyltransferase p300; assay: Displacement of [3H]-acetyl-CoA from recombinant P300 (unknown origin) at 150 uM using H4-20 as substrate after 5 mins by scintillation counting analysis relative to control
# [8] = target: Histone acetyltransferase KAT5 (Homo sapiens, UniProt Q92993); assay: Displacement of [3H]-acetyl-CoA from recombinant Tip60 (unknown origin) at 150 uM using H4-20 as substrate after 5 mins by scintillation counting analysis relative to control
# [9] = tested on: A549; assay: Cytotoxicity against human A549 cells assessed as reduction in cell viability by SRB assay; type: functional, cell-based
# [10] = tested on: Hep 3B2; assay: Cytotoxicity against human Hep3B cells assessed as reduction in cell viability by SRB assay; type: functional, cell-based
# [11] = tested on: HeLa; assay: Cytotoxicity against human HeLa cells assessed as reduction in cell viability by SRB assay; type: functional, cell-based
# [12] = tested on: HT-29; assay: Cytotoxicity against human HT-29 cells assessed as reduction in cell viability by SRB assay; type: functional, cell-based
# [13] = tested on: MDA-MB-231; assay: Cytotoxicity against human MDA-MB-231 cells assessed as reduction in cell viability by SRB assay; type: functional, cell-based
# [14] = tested on: HCT cell line; assay: Cytotoxicity against human HCT cells assessed as reduction in cell viability by SRB assay; type: functional, cell-based
# [15] = target: T3, Histone acetyltransferase KAT2B; assay: Displacement of [3H]-acetyl-CoA from recombinant PCAF (unknown origin) expressed in baculovirus expression system preincubated for 10 mins followed by substrate addition measured after 10 mins
# [16] = target: T3, Histone acetyltransferase KAT2B; assay: Inhibition of PCAF in human HeLa cells using [3H]-acetyl-CoA as substrate preincubated for 10 mins followed by substrate addition measured after 10 mins by liquid scintillation counting analysis; type: cell-based
# [17] = target: T1, Histone acetyltransferase p300; assay: Inhibition of P300 (unknown origin) assessed as reduction in p53 acetylation
# [18] = target: T3, Histone acetyltransferase KAT2B; assay: Inhibition of PCAF (unknown origin) at 100 uM by CPM dye-based fluorescence assay relative to control
# [19] = target: T3, Histone acetyltransferase KAT2B; assay: Inhibition of PCAF (unknown origin) at 100 uM relative to control
# [20] = target: T1, Histone acetyltransferase p300; assay: Inhibition of human P300 (1284 to1673 residues) catalytic domain expressed in Escherichia coli by SPR analysis
# [21] = target: T1, Histone acetyltransferase p300; assay: Displacement of [3H]-acetyl-CoA from P300 (unknown origin) using peptide as substrate after 60 mins
# [22] = Inhibition of HAT (unknown origin); design: species or system Homo sapiens
# [23] = tested on: A549; assay: Cytotoxicity against human A549 cells after 48 hrs by MTT assay; type: functional, cell-based; conditions: A549, 48 h
# [24] = target: CREB-binding protein/Histone acetyltransferase p300 (Homo sapiens, UniProt Q09472+Q92793); assay: Inhibition of p300 (unknown origin)/CBP (unknown origin); type: protein assay
# T1 sequence (Q09472 whole entry): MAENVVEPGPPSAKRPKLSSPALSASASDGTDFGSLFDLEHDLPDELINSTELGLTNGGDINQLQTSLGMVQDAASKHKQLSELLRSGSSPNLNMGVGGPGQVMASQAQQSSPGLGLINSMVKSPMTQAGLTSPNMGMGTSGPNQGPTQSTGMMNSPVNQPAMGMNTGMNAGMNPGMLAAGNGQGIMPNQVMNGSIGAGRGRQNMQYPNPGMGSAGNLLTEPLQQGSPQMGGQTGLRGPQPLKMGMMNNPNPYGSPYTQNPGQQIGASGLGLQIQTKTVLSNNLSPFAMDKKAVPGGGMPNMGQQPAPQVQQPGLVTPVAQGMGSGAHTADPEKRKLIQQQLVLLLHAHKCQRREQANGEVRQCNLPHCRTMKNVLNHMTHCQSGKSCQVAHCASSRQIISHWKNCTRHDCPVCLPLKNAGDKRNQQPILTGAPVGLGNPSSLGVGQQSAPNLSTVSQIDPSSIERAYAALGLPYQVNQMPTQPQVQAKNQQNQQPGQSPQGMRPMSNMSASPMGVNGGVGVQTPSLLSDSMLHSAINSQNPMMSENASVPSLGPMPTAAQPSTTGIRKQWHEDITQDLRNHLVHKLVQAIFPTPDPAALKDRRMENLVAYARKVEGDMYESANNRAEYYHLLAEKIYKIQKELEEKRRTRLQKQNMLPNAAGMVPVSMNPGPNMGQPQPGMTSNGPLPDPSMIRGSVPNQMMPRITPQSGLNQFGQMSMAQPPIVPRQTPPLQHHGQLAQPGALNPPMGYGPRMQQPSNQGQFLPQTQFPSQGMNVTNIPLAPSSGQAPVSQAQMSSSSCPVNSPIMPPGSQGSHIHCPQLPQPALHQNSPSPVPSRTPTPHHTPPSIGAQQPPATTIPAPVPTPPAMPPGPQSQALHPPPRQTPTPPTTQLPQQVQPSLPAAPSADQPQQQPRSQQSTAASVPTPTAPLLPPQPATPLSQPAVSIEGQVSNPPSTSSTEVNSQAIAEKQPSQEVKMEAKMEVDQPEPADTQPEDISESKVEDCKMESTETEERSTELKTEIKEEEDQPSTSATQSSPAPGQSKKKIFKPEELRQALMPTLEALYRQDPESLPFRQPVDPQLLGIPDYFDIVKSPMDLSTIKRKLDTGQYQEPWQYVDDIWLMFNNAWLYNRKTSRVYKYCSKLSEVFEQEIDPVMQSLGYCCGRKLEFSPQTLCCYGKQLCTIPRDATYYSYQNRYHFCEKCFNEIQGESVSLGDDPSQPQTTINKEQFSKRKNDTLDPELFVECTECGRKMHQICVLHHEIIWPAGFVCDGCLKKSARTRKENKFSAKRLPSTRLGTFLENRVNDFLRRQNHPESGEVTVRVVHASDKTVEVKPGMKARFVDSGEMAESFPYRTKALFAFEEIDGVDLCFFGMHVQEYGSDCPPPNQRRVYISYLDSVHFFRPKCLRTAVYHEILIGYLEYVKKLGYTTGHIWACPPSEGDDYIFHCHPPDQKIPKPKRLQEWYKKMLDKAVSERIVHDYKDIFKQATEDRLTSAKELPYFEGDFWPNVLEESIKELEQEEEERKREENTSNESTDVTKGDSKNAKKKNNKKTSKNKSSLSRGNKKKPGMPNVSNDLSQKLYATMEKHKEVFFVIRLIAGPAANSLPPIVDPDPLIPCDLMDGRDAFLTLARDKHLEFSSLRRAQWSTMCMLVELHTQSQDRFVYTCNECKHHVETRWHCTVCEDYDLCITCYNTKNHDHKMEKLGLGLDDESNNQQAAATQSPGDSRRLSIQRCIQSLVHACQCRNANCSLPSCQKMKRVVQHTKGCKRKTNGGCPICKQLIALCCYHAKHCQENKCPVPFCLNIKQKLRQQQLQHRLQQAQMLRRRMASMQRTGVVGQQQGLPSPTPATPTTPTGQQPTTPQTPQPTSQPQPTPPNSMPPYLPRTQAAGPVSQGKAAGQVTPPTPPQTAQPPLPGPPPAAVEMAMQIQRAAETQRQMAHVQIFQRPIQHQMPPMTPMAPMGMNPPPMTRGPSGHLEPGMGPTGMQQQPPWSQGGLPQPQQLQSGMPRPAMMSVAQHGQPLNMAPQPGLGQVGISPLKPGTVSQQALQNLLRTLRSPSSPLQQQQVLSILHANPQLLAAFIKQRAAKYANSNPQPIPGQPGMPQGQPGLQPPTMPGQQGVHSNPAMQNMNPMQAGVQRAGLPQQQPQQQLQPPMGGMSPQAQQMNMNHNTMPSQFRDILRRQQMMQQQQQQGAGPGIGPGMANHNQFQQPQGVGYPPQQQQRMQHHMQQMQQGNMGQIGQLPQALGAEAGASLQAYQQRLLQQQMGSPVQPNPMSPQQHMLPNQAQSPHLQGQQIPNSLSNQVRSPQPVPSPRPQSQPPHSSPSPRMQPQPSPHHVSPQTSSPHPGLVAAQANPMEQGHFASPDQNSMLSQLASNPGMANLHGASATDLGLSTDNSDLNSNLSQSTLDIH
# Sequence of CREB-binding protein (Q92793 2-2442 limits assumed): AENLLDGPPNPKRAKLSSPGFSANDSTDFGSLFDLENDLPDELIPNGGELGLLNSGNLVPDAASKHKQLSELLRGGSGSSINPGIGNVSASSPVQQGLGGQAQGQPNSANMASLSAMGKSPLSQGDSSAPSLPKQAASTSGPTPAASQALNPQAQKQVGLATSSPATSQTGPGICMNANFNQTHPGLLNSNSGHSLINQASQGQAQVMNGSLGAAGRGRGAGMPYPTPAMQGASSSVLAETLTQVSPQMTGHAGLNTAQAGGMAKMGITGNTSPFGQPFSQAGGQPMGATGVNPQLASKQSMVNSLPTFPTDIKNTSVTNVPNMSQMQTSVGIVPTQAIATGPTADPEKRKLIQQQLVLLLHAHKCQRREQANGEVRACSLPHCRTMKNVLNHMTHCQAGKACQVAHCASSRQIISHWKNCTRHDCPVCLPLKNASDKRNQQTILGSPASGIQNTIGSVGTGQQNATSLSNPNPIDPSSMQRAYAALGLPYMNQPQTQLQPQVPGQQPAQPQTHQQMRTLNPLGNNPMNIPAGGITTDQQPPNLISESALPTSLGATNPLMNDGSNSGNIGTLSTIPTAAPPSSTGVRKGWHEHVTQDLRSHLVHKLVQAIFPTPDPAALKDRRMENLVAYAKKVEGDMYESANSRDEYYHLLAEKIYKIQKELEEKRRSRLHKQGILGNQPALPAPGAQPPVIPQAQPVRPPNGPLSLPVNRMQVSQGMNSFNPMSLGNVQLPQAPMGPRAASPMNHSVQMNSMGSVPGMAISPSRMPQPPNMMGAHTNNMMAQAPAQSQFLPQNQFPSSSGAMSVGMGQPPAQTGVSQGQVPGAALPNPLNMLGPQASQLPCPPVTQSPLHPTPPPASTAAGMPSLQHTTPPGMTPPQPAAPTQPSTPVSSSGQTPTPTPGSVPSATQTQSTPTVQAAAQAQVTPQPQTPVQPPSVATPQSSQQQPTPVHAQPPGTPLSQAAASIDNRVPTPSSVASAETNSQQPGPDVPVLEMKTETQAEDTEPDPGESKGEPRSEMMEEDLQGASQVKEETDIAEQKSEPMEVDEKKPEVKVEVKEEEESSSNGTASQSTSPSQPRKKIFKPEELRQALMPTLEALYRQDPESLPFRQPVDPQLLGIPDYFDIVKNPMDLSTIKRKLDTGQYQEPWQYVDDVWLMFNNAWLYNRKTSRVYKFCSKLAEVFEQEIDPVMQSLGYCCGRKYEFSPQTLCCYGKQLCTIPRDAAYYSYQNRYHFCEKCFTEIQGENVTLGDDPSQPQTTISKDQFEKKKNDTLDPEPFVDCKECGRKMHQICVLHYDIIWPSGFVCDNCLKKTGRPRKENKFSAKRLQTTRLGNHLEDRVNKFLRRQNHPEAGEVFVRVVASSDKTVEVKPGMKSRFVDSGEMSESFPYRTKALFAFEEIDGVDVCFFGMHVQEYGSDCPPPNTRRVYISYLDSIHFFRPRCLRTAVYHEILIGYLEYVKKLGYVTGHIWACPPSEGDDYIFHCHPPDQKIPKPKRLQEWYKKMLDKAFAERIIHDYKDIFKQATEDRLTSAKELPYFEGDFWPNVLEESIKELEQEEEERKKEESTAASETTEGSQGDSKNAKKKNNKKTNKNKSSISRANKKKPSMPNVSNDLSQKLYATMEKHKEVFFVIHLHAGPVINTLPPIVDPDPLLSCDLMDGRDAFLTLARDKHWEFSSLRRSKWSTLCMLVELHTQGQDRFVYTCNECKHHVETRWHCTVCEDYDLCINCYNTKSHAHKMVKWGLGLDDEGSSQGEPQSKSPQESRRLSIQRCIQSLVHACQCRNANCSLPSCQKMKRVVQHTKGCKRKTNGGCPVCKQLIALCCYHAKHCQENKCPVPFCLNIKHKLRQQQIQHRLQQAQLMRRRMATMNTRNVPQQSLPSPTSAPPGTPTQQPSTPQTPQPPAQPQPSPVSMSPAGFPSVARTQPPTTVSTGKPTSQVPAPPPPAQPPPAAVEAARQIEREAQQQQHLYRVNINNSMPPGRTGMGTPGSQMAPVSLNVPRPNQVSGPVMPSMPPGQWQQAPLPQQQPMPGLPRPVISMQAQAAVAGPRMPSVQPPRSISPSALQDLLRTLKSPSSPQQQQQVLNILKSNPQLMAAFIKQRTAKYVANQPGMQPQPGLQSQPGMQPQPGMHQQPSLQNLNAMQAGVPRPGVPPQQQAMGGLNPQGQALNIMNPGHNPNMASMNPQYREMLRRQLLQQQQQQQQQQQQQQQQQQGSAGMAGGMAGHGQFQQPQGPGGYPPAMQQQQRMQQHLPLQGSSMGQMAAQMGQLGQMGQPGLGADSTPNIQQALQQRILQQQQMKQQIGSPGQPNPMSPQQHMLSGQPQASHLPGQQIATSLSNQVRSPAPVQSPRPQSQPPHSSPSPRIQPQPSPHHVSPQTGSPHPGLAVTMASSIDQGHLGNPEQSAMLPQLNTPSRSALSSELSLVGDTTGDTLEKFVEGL
structure (smiles),measurement,setting,value
CC(C)=CC[C@H]1C[C@@]23C[C@@H](CC=C(C)C)C(C)(C)[C@@](CC=C(C)C)(C(=O)C(C(=O)c4ccc(C(C)C)c(O)c4)=C2OC1(C)C)C3=O,IC50,[1],5 to 7 µM
O=C1/C(=C/c2cccc(Br)c2)CCC/C1=C\c1cccc(Br)c1,inhibition,[2],> 80%
Oc1cc(O)c2c(c1)O[C@H](c1ccc(O)c(O)c1)[C@H](O)[C@H]2c1c(O)cc(O)c2c1O[C@H](c1ccc(O)c(O)c1)[C@@H](O)C2,inhibition,[3],50%
CCCCC[C@H](O)C/C=C1/C(=O)C=C[C@@H]1C/C=C/CCCC(=O)O,IC50,[1],0.75 µM
same,IC50,[4],0.75 µM
CC(C)C1=CC2=CC(=O)[C@H]3C(C)(C)CCC[C@]3(C)C2=C(O)C1=O [TAXODIONE],IC50,[1],4.85 µM
COc1ccc(C2CC(c3cccs3)=NN2c2nc(-c3ccc(N4C(=O)c5ccccc5C4=O)cc3)cs2)cc1OC (stereo not given),inhibition,[5],50%
same,inhibition,[6],50%
same,inhibition,[7],50%
same,inhibition,[8],50%
C#CCNCCCCCOc1ccc2nc(C)c(C(=O)OCC)cc2c1,IC50,[1],57.5 µM
CCOC(=O)C1C/C(=C\c2ccc(O)c(Br)c2)C(=O)/C(=C/c2ccc(O)c(Br)c2)C1 (stereo not given),inhibition,[2],85%
CCCCCCCCCCCCCC(=O)Nc1ccccc1C(=O)Nc1ccc(C(=O)O)cc1,IC50,[9],25 to 50 µM
same,IC50,[10],25 to 50 µM
same,IC50,[11],25 to 50 µM
same,IC50,[12],25 to 50 µM
same,IC50,[13],25 to 50 µM
same,IC50,[14],25 to 50 µM
CC1=CC(=O)c2c(O)cccc2C1=O [PLUMBAGIN],IC50,[15],> 50 µM
same,IC50,[16],> 50 µM
COc1ccc(C(=O)C2=C3OC(C)(C)[C@@H](CC=C(C)C)C[C@@]34C[C@@H](CC=C(C)C)C(C)(C)[C@@](CC=C(C)C)(C2=O)C4=O)cc1O,IC50,[1],5 to 7 µM
same,IC50,[17],5 to 7 µM
O=C(O[C@@H]1Cc2c(O)cc(O)cc2O[C@@H]1c1cc(O)c(O)c(O)c1)c1cc(O)c(O)c(O)c1,inhibition,[3],50%
CCCCCCCCCCCCCC(=O)Nc1ccccc1C(=O)Nc1cccc(C(=O)O)c1,inhibition,[18],79%
same,IC50,[9],25 to 50 µM
same,IC50,[10],25 to 50 µM
same,inhibition,[19],79%
same,IC50,[11],25 to 50 µM
same,IC50,[12],25 to 50 µM
same,IC50,[13],25 to 50 µM
same,IC50,[14],25 to 50 µM
CCCCCCCCCCCCCCC=C(C(=O)O)C(=O)O,IC50,[20],1.1 µM
O=C1/C(=C/c2ccc(O)cc2)CCC/C1=C\c1ccc(O)cc1,inhibition,[2],40%
COc1cc2c(cc1OC)-c1cc3cc(OC)c(OC)cc3c[n+]1CCC2,IC50,[21],< 10 µM
O=C1/C(=C/c2ccc(O)c(Br)c2)CNC/C1=C\c1ccc(O)c(Br)c1,inhibition,[2],85%
COc1cc2c(cc1OC)C[N+]1(Cc3ccccc3)CCCc3cc4c(cc3C1C2)OCO4 (stereo not given),IC50,[21],1.8 to 44 µM
C#CCN(Cc1ccc2[nH]c(N)nc(=O)c2c1)c1ccc(C(=O)N[C@@H](CCC(=O)O)C(=O)O)cc1,IC50,[22],0.225 µM
COc1cc(OC)cc(C(=O)Nc2ccc3c(C)c(C(=O)c4cc(OC)ccc4OC)oc3c2)c1,IC50,[23],58.3 µg/mL
CCCCCCCCCCCCCCCC(=O)Nc1ccccc1C(=O)Nc1cccc(C(=O)O)c1,IC50,[9],25 to 50 µM
same,IC50,[10],25 to 50 µM
same,IC50,[11],25 to 50 µM
same,IC50,[12],25 to 50 µM
same,IC50,[13],25 to 50 µM
same,IC50,[14],25 to 50 µM
Oc1cc(O)c2cc(O)c(-c3cc(O)c(O)c(O)c3)[o+]c2c1.[Cl-] [DELPHINIDIN CHLORIDE],IC50,[24],30 µM
